Assays:
[1] = target: IRAK4 (Homo sapiens (Human), UniProt Q9NWZ3); assay: IRAK4 Inhibition Assay; assay type: biochemical; details: ATP 500 μM; IRAK4 0.6 nM; 60 min room temperature
Description: The assays were performed in U-bottom 384-well plates. The final assay volume was 30 μL prepared from 15 μL additions of enzyme and substrates (fluoresceinated peptide and ATP) and test compounds in assay buffer (20 mM HEPES pH 7.2, 10 mM MgCl2, 0.015% Brij 35 and 4 mM DTT). The reaction was initiated by the combination of IRAK4 with substrates and test compounds. The reaction mixture was incubated at room temperature for 60 min. and terminated by adding 45 μL of 35 mM EDTA to each sample. The reaction mixture was analyzed on the Caliper LABCHIP® 3000 (Caliper, Hopkinton, Mass.) by electrophoretic separation of the fluorescent substrate and phosphorylated product. Inhibition data were calculated by comparison to no enzyme control reactions for 100% inhibition and vehicle-only reactions for 0% inhibition. The final concentrations of reagents in the assays are ATP, 500 μM; FL-IPTSPITTTYFFFKKK peptide 1.5 μM; IRAK4, 0.6 nM; and DMSO, 1.6%.

[2] = system: Human whole blood; assay: IRAK4 Whole Blood Assay (TLR2 agonist lipoteichoic acid induced IL-6); assay type: cell-based; details: 10 μg/mL lipoteichoic acid (TLR2 agonist), 5 hours, IL-6 levels
Description: Human whole blood containing the anti-coagulant ACD-A was plated in 384-well plate (25 μL/well) and incubated with compounds for 60 minutes at 37° C. in a 5% CO2 incubator. The blood was stimulated with a TLR2 agonist, 10 μg/mL final concentration of lipoteichoic acid (Invivogen, San Diego, Calif.) in 25 μL RPMI (Gibco) for 5 hours in a 5% CO2 incubator. At the end of the incubation, plates were centrifuged at 2300 rpm for 5 minutes. Supernatants were harvested and analyzed for IL-6 levels by Flow Cytometry beads assay (BD Biosciences, San Jose, Calif.).

[3] = Caco-2 Permeability Assay; assay type: in vitro ADME; details: human, test compound 3 μM, 2 hours at 37° C., direction not given
Description: Caco-2 Permeability Assay Protocol
Thirteen to 27 days prior to assay, Caco-2 cells were seeded onto collagen-coated polycarbonate filter membranes in 24-well transwell plates at a density of 1.45×10^5 cells/cm^2, approximately 4.8×10^4 cells per well. The cells were grown in a culture medium consisting of DMEM supplemented with 10% fetal bovine serum, 10 mM HEPES, 1% nonessential amino acids, 2 mM L-glutamine, 100 U/mL penicillin-G, and 100 μg/mL streptomycin. The culture medium was replaced every 3 days and the cells were maintained at 37° C. in a 95% relative humidity and 5% CO2 atmosphere. The cells were evaluated for tight junction formation just prior to assay. The test compound was solubilized to 10 mM in 100% DMSO and diluted to 3 μM in assay buffer. Permeability studies were initiated by adding 200 μL assay buffer plus/minus compound to the apical transwell compartment and 600 μL assay buffer plus/minus compound to the basolateral compartment of the 24-well transwell low-binding cluster plate. For apical-to-basolateral (A to B) permeability (absorptive direction), buffer containing compound was placed in the apical compartment (donorwells), while buffer alone was placed in the corresponding basolateral compartments (receiverwells). For basolateral-to-apical (B to A) permeability (secretive direction), buffer containing compound was placed in the basolateral compartment (donor wells), while buffer alone was placed in the corresponding apical compartments (receiver wells). Transwells were then incubated for 2 hours at 37° C. in a 95% relative humidity and 5% CO2 atmosphere with gentle agitation. Following incubation, 100 μL was removed from each apical and basolateral compartment and transferred to 96-well low binding plates that had been previously loaded with 100 μL/well of acetonitrile containing 250 nM propranolol, 250 nM diclofenac, and 500 nM tolbutamide as internal standards. The samples were subsequently analyzed by LC-MS/MS to determine concentrations of compound.

IRAK4, sequence (Q9NWZ3 whole entry): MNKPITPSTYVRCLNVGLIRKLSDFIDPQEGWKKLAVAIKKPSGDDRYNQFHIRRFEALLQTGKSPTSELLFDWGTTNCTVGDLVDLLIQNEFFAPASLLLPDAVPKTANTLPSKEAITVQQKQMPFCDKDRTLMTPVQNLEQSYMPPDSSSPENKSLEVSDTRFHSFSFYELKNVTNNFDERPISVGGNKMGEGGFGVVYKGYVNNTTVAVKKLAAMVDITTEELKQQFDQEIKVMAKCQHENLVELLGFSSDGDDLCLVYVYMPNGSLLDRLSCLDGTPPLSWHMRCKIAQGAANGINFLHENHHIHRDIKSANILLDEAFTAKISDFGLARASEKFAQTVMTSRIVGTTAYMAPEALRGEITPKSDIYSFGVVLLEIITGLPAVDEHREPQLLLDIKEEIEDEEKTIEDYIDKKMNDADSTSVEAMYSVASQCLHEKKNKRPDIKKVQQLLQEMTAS

| SMILES | IC50 [1] | EC50 [2] | Papp at 2 h, 3 μM [3] |
| --- | --- | --- | --- |
| CC(C)Nc1cc(-c2cnn3cc(C#N)cnc23)ncc1-n1cc(C(C)(C)O)cn1 [Example 1, 3-(5-(4-(2-hydroxypropan-2-yl)-1H-pyrazol-1-yl)-4-(isopropylamino)pyridin-2-yl) pyrazolo[1,5-a]pyrimidine-6-carbonitrile] | 578 nM | – | – |
| CC(C)Nc1cc(-c2cnc3cc(C#N)cnn23)ncc1-c1cnn(C2CCOCC2)c1 [Example 3, 3-(4-(isopropylamino)-5-(1-(tetrahydro-2H-pyran-4-yl)-1H-pyrazol-4-yl)pyridin-2-yl)imidazo[1,2-b]pyridazine-7-carbonitrile] | 14 nM | 1030 nM | – |
| CC(C)Nc1cc(-c2cnc3cc(Cl)cnn23)ncc1-c1cnn(CC(C)(C)O)c1 [Example 4, 1-(4-(6-(7-chloroimidazo[1,2-b]pyridazin-3-yl)-4-(isopropylamino)pyridin-3-yl)-1H-pyrazol-1-yl)-2-methylpropan-2-ol] | 396 nM | – | – |
| CC(C)Nc1cc(-c2cnc3cc(C#N)cnn23)ncc1-c1cnn(CC(C)(C)O)c1 [Example 5, 3-(5-(1-(2-hydroxy-2-methylpropyl)-1H-pyrazol-4-yl)-4-(isopropylamino)pyridin-2-yl)imidazo[1,2-b]pyridazine-7-carbonitrile] | 174 nM | – | – |
| CCCn1cc(-c2cnc(-c3cnc4cc(C#N)cnn34)cc2NC(C)C)cn1 [Example 6, 3-(4-(isopropylamino)-5-(1-propyl-1H-pyrazol-4-yl)pyridin-2-yl)imidazo[1,2-b]pyridazine-7-carbonitrile] | 18 nM | 4410 nM | – |
| CC(C)Nc1cc(-c2cnc3cc(Cl)cnn23)ncc1-c1cnn(CC(F)(F)F)c1 [Example 7, 2-(7-chloroimidazo[1,2-b]pyridazin-3-yl)-N-isopropyl-5-(1-(2,2,2-trifluoroethyl)-1H-pyrazol-4-yl)pyridin-4-amine] | 53 nM | – | – |
| CC(C)Nc1cc(-c2cnc3cc(C#N)cnn23)ncc1-c1cnn(CC(F)(F)F)c1 [Example 8, 3-(4-(isopropylamino)-5-(1-(2,2,2-trifluoroethyl)-1H-pyrazol-4-yl)pyridin-2-yl)imidazo[1,2-b]pyridazine-7-carbonitrile] | 43 nM | – | – |
| CCCn1cc(-c2cnc(-c3cnc4cc(Cl)cnn34)cc2Nc2cnn(CC(F)F)c2)cn1 [Example 9, 2-(7-chloroimidazo[1,2-b]pyridazin-3-yl)-N-(1-(2,2-difluoroethyl)-1H-pyrazol-4-yl)-5-(1-propyl-1H-pyrazol-4-yl)pyridin-4-amine] | 29 nM | – | – |
| CCCn1cc(-c2cnc(-c3cnc4cc(C#N)cnn34)cc2Nc2cnn(CC(F)F)c2)cn1 [Example 10, 3-(4-((1-(2,2-difluoroethyl)-1H-pyrazol-4-yl)amino)-5-(1-propyl-1H-pyrazol-4-yl)pyridin-2-yl)imidazo[1,2-b]pyridazine-7-carbonitrile] | 20 nM | – | – |
| CCCc1cn(-c2cnc(-c3cnn4cc(Cl)cnc34)cc2NC(C)C)nn1 [Example 11, 2-(6-chloropyrazolo[1,5-a]pyrimidin-3-yl)-N-isopropyl-5-(4-propyl-1H-1,2,3-triazol-1-yl)pyridin-4-amine] | 8 nM | – | 17.9 ×10⁻⁶ cm/s |
| CCCc1cn(-c2cnc(-c3cnn4cc(C#N)cnc34)cc2NC(C)C)nn1 [Example 12, 3-(4-(isopropylamino)-5-(4-propyl-1H-1,2,3-triazol-1-yl)pyridin-2-yl)pyrazolo[1,5-a]pyrimidine-6-carbonitrile] | 9 nM | – | 34.7 ×10⁻⁶ cm/s |
| CC(C)Nc1cc(-c2cnn3cc(Cl)cnc23)ncc1-n1cc(CCC(C)(C)O)nn1 [Example 13, 4-(1-(6-(6-chloropyrazolo[1,5-a]pyrimidin-3-yl)-4-(isopropylamino)pyridin-3-yl)-H-1,2,3-triazol-4-yl)-2-methylbutan-2-ol] | 3 nM | 950 nM | – |
| CC(C)(O)CCc1cn(-c2cnc(-c3cnn4cc(Cl)cnc34)cc2NC2COC2)nn1 [Example 14, 4-(1-(6-(6-chloropyrazolo[1,5-a]pyrimidin-3-yl)-4-(oxetan-3-ylamino)pyridin-3-yl)-1H-1,2,3-triazol-4-yl)-2-methylbutan-2-ol] | 9 nM | 820 nM | – |
| CC(C)Nc1cc(-c2cnc3cc(C#N)cnn23)ncc1-c1cn(C2CCOCC2)nn1 [Example 16, 3-(4-(isopropylamino)-5-(1-(tetrahydro-2H-pyran-4-yl)-1H-1,2,3-triazol-4-yl)pyridin-2-yl)imidazo[1,2-b]pyridazine-7-carbonitrile] | 2 nM | – | – |
| CC(=O)N1CC(n2cc(-c3cnc(-c4cnc5cc(C#N)cnn45)cc3NC(C)C)nn2)C1 [Example 17, 3-(5-(1-(1-acetylazetidin-3-yl)-1H-1,2,3-triazol-4-yl)-4-(isopropylamino)pyridin-2-yl)imidazo[1,2-b]pyridazine-7-carbonitrile] | 2 nM | – | – |
| CCCn1cc(-c2cnc(-c3cnc4cc(Cl)cnn34)cc2NC2CC2)nn1 [Example 19, 2-(7-chloroimidazo[1,2-b]pyridazin-3-yl)-N-cyclopropyl-5-(1-propyl-1H-1,2,3-triazol-4-yl)pyridin-4-amine] | 3 nM | 2320 nM | – |
| CCCn1cc(-c2cnc(-c3cnc4cc(Cl)cnn34)cc2NC(C)C)nn1 [Example 20, 2-(7-chloroimidazo[1,2-b]pyridazin-3-yl)-N-isopropyl-5-(1-propyl-1H-1,2,3-triazol-4-yl)pyridin-4-amine] | 12 nM | – | – |
| COC(=O)N1CCC(n2cc(-c3cnc(-c4cnc5cc(Cl)cnn45)cc3NC3CC3)nn2)[C@](C)(O)C1 (stereo partly drawn) [Example 21, (3R)-methyl 4-(4-(6-(7-chloroimidazo[1,2-b]pyridazin-3-yl)-4-(cyclopropylamino)pyridin-3-yl)-1H-1,2,3-triazol-1-yl)-3-hydroxy-3-methylpiperidine-1-carboxylate] | 14 nM | 2870 nM | – |
| CC(C)(O)CCc1cn(-c2cnc(-c3cnn4cc(Cl)cnc34)cc2NC2CCOCC2)nn1 [Example 23, 4-(1-(6-(6-chloropyrazolo[1,5-a]pyrimidin-3-yl)-4-((tetrahydro-2H-pyran-4-yl)amino)pyridin-3-yl)-1H-1,2,3-triazol-4-yl)-2-methylbutan-2-ol] | 9 nM | 990 nM | – |
| CC(C)(O)CCc1cn(-c2cnc(-c3cnn4cc(C#N)cnc34)cc2NC2CC(F)(F)C2)nn1 [Example 24, 3-(4-((3,3-difluorocyclobutyl)amino)-5-(4-(3-hydroxy-3-methylbutyl)-1H-1,2,3-triazol-1-yl)pyridin-2-yl)pyrazolo[1,5-a]pyrimidine-6-carbonitrile] | 14 nM | 780 nM | – |
| CC(C)(O)CCc1cn(-c2cnc(-c3cnn4cc(C#N)cnc34)cc2NC2COC2)nn1 [Example 26, 3-(5-(4-(3-hydroxy-3-methylbutyl)-1H-1,2,3-triazol-1-yl)-4-(oxetan-3-ylamino)pyridin-2-yl)pyrazolo[1,5-a]pyrimidine-6-carbonitrile] | – | 160 nM | – |
| CC(C)Nc1cc(-c2cnc3cc(C#N)cnn23)ncc1-c1cc(C2CCOCC2)[nH]n1 [Example 28, 3-(4-(isopropylamino)-5-(5-(tetrahydro-2H-pyran-4-yl)-1H-pyrazol-3-yl)pyridin-2-yl)imidazo[1,2-b]pyridazine-7-carbonitrile] | 5 nM | 590 nM | – |
| CC(C)(O)CCc1cc(-c2cnc(-c3cnn4cc(C#N)cnc34)cc2NC2CCOCC2)n[nH]1 [Example 29, 3-(5-(5-(3-hydroxy-3-methylbutyl)-1H-pyrazol-3-yl)-4-((tetrahydro-2H-pyran-4-yl)amino)pyridin-2-yl)pyrazolo[1,5-a]pyrimidine-6-carbonitrile] | 2 nM | 510 nM | – |

— US10202390B2, “Heteroaryl substituted aminopyridine compounds” (BRISTOL-MYERS SQUIBB COMPANY, priority 2015, dated 2019)
